Drawing on ChEMBL document CHEMBL5726408, “Compounds for treatment of complement mediated disorders” (2017), this text covers IC50 for 2 compounds.

The target of this assay is Complement factor D (Homo sapiens, UniProt P00746). Put plainly: Inhibition Assay: Human factor D (purified from human serum, Complement Technology, Inc.) at 80 nM final concentration is incubated with test compound at various concentrations for 5 minutes at room temperature in 50 mM Tris, 1M NaCl, pH 7.5. A synthetic substrate Z-L-Lys-SBzl and DTNB (Ellman's reagent) are added to final concentrations of 10 μM each. The increase in color is recorded at OD405 nm in a microplate in kinetic mode over 30 minutes with 30 second time points in a […]. IC50 values are calculated by non-linear regression from the percentage of inhibition of complement factor D activity as a function of test compound concentration.
Complement factor D, sequence (P00746 whole entry): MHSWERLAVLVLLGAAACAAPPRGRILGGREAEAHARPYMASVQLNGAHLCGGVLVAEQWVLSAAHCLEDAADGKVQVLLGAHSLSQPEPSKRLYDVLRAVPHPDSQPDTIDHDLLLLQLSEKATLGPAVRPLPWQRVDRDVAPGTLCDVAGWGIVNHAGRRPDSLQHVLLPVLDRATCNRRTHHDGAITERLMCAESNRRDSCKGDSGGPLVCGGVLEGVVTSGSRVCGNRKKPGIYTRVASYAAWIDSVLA

As usually defined, the IC50 is the concentration that inhibits the measured activity by half. Turning to `NC(=O)c1cn(CC(=O)N2C[C@H](F)C[C@H]2C(=O)Nc2cccc(-c3ccccc3Cl)c2F)c2ccsc12`, the IC50 was below 1 µM.

As to `NC(=O)c1nn(CC(=O)N2C[C@H](F)C[C@H]2C(=O)Nc2cccc(Br)n2)c2c1C=CC1N=C(c3cccc(Cl)c3)N=C21` (some centres not stated), the IC50 is below 1 µM.
